# Measurements as given in PubChem BioAssay AID270 (DTP/NCI, 2004).
# Several values for one entry are separate records, joined by “and”; a condition that tells them apart may be missing. Identical values can stand only once. Results filed as inconclusive are left out.
# System: BDF1 mice, s.c. Lewis lung carcinoma, T/C %
# Assay: NCI In Vivo Anticancer Drug Screen. Data for tumor model Lewis Lung Carcinoma (subcutaneous) in B6D2F1 (BDF1) mice
# In short: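 The value reflects a ratio in which the treated cohort's survival time or tumour size is compared against mice receiving only vehicle.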
# [1] = endpoint: median survival time, dose: 1.5 mg/kg/injection, schedule: Q01DX009 (ip), vehicle: saline, higher = longer survival
# [2] = endpoint: median survival time, dose: 3.0 mg/kg/injection, schedule: Q01DX009 (ip), vehicle: saline, higher = longer survival
# [3] = endpoint: mean tumor weight, dose: 50.0 mg/kg/injection, schedule: Q01DX011 (ip), vehicle: other, higher = larger tumour
# [4] = endpoint: mean tumor weight, dose: 100.0 mg/kg/injection, schedule: Q01DX011 (ip), vehicle: other, higher = larger tumour
# [5] = endpoint: median survival time, dose: 5.0 mg/kg/injection, schedule: Q01DX009 (ip), vehicle: Klucel (hydroxypropylcellulose) (HPC), higher = longer survival
# [6] = endpoint: median survival time, dose: 10.0 mg/kg/injection, schedule: Q01DX009 (ip), vehicle: Klucel (hydroxypropylcellulose) (HPC), higher = longer survival
compound,measurement,setting,value
O=c1ccc2ccccc2o1,T/C,"endpoint: mean tumor weight, dose: 110.0 mg/kg/injection, schedule: Q01DX011 (ip), vehicle: carboxymethylcellulose (CMC), higher = larger tumour",57 % of control
same,T/C,"endpoint: mean tumor weight, dose: 165.0 mg/kg/injection, schedule: Q01DX011 (ip), vehicle: carboxymethylcellulose (CMC), higher = larger tumour",63 % of control
CC1C[N-]CC(C)C1.CC1C[N-]CC(C)C1.CC1C[N-]CC(C)C1.CC1C[N-]CC(C)C1.[Cl][Rh][Cl] (stereo not drawn),T/C,[1],104 % of control
same,T/C,[2],114 % of control
same,T/C,"endpoint: median survival time, dose: 6.0 mg/kg/injection, schedule: Q01DX009 (ip), vehicle: saline, higher = longer survival",105 % of control
COC(=O)c1nc(-c2ccc3c(n2)C(=O)C(N)=C(OC)C3=O)c(N)c(-c2ccc(OC)c(OC)c2O)c1C,T/C,"endpoint: mean tumor weight, dose: 0.25 mg/kg/injection, schedule: Q01DX011 (ip), vehicle: other, higher = larger tumour",65 % of control
same,T/C,"endpoint: mean tumor weight, dose: 0.5 mg/kg/injection, schedule: Q01DX011 (ip), vehicle: other, higher = larger tumour",70 % of control
same,T/C,"endpoint: mean tumor weight, dose: 1.0 mg/kg/injection, schedule: Q01DX011 (ip), vehicle: other, higher = larger tumour",45 % of control
CC(C)NC(=O)c1ccc(N/N=[N+](/C)[O-])cc1,T/C,"endpoint: median survival time, dose: 6.25 mg/kg/injection, schedule: Q01DX005 (ip), vehicle: saline with Tween-80, higher = longer survival",105 % of control
same,T/C,"endpoint: median survival time, dose: 12.5 mg/kg/injection, schedule: Q01DX005 (ip), vehicle: saline with Tween-80, higher = longer survival",102 % of control
same,T/C,"endpoint: median survival time, dose: 25.0 mg/kg/injection, schedule: Q01DX005 (ip), vehicle: saline with Tween-80, higher = longer survival",106 % of control
same,T/C,"endpoint: median survival time, dose: 50.0 mg/kg/injection, schedule: Q01DX005 (ip), vehicle: saline with Tween-80, higher = longer survival",90 % of control and 103 % of control
same,T/C,"endpoint: median survival time, dose: 100.0 mg/kg/injection, schedule: Q01DX005 (ip), vehicle: saline with Tween-80, higher = longer survival",111 % of control and 112 % of control
same,T/C,"endpoint: median survival time, dose: 200.0 mg/kg/injection, schedule: Q01DX005 (ip), vehicle: saline with Tween-80, higher = longer survival",110 % of control
CCCCCCCCCCCCO[P+](=O)OCCCCCCCCCCCC,T/C,[3],122 % of control
same,T/C,[4],98 % of control
same,T/C,"endpoint: mean tumor weight, dose: 200.0 mg/kg/injection, schedule: Q01DX011 (ip), vehicle: other, higher = larger tumour",76 % of control
same,T/C,"endpoint: mean tumor weight, dose: 400.0 mg/kg/injection, schedule: Q01DX011 (ip), vehicle: other, higher = larger tumour",65 % of control
same,T/C,"endpoint: mean tumor weight, dose: 400.0 mg/kg/injection, schedule: Q01DX011 (ip), vehicle: saline, higher = larger tumour",36 % of control
same,T/C,"endpoint: mean tumor weight, dose: 600.0 mg/kg/injection, schedule: Q01DX011 (ip), vehicle: saline, higher = larger tumour",19 % of control
same,T/C,"endpoint: mean tumor weight, dose: 900.0 mg/kg/injection, schedule: Q01DX011 (ip), vehicle: saline, higher = larger tumour",21 % of control
same,T/C,"endpoint: median survival time, dose: 50.0 mg/kg/injection, schedule: Q01DX009 (ip), vehicle: saline, higher = longer survival",108 % of control
same,T/C,"endpoint: median survival time, dose: 100.0 mg/kg/injection, schedule: Q01DX009 (ip), vehicle: saline, higher = longer survival",99 % of control
COc1cccc(C=O)c1O,T/C,"endpoint: mean tumor weight, dose: 12.5 mg/kg/injection, schedule: Q01DX011 (ip), vehicle: carboxymethylcellulose (CMC), higher = larger tumour",106 % of control
same,T/C,"endpoint: mean tumor weight, dose: 25.0 mg/kg/injection, schedule: Q01DX011 (ip), vehicle: carboxymethylcellulose (CMC), higher = larger tumour",58 % of control
same,T/C,"endpoint: mean tumor weight, dose: 50.0 mg/kg/injection, schedule: Q01DX011 (ip), vehicle: carboxymethylcellulose (CMC), higher = larger tumour",88 % of control
C[n+]1ccc(Nc2ccc(NC(=O)c3ccc(Nc4cc[n+](C)c5ccc(N)cc45)cc3)cc2)cc1,T/C,"endpoint: median survival time, dose: 1.0 mg/kg/injection, schedule: Q01DX009 (ip), vehicle: Klucel (hydroxypropylcellulose) (HPC), higher = longer survival",167 % of control
same,T/C,"endpoint: median survival time, dose: 8.0 mg/kg/injection, schedule: Q01DX009 (ip), vehicle: Klucel (hydroxypropylcellulose) (HPC), higher = longer survival",244 % of control
CCCCCCCCSC1=C(Cl)C(=O)C(OC)=C(OC)C1=O,T/C,"endpoint: median survival time, dose: 12.5 mg/kg/injection, schedule: Q01DX009 (ip), vehicle: other, higher = longer survival",92 % of control
S=c1nc[nH]c2c1ncn2C1CCCO1 (stereo not drawn),T/C,"endpoint: mean tumor weight, dose: 12.5 mg/kg/injection, schedule: Q01DX011 (ip), vehicle: other, higher = larger tumour",36 % of control
same,T/C,"endpoint: mean tumor weight, dose: 25.0 mg/kg/injection, schedule: Q01DX011 (ip), vehicle: other, higher = larger tumour",86 % of control
same,T/C,[3],91 % of control
same,T/C,[4],67 % of control
COc1cc2c(c(OC)c1OC)-c1cc3c(cc1[C@@H](OC(C)=O)[C@@H]1COC(=O)[C@H]1C2)OCO3,T/C,"endpoint: median survival time, dose: 2.5 mg/kg/injection, schedule: Q01DX009 (ip), vehicle: Klucel (hydroxypropylcellulose) (HPC), higher = longer survival",94 % of control
same,T/C,[5],97 % of control
same,T/C,[6],95 % of control
O=c1[nH]cc(F)c(=O)[nH]1,T/C,"endpoint: mean tumor weight, dose: 5.0 mg/kg/injection, schedule: Q01DX011 (ip), vehicle: saline, higher = larger tumour",54 % of control
same,T/C,"endpoint: mean tumor weight, dose: 10.0 mg/kg/injection, schedule: Q01DX011 (ip), vehicle: saline, higher = larger tumour",68 % of control
same,T/C,"endpoint: mean tumor weight, dose: 13.5 mg/kg/injection, schedule: Q01DX011 (ip), vehicle: water, higher = larger tumour",51 % of control
same,T/C,"endpoint: mean tumor weight, dose: 20.0 mg/kg/injection, schedule: Q01DX011 (ip), vehicle: saline, higher = larger tumour",35 % of control
same,T/C,"endpoint: mean tumor weight, dose: 27.0 mg/kg/injection, schedule: Q01DX011 (ip), vehicle: water, higher = larger tumour",6 % of control
same,T/C,[5],86 % of control
same,T/C,"endpoint: median survival time, dose: 5.0 mg/kg/injection, schedule: Q01DX009 (ip), vehicle: saline with Tween-80, higher = longer survival",97 % of control
same,T/C,"endpoint: median survival time, dose: 5.0 mg/kg/injection, schedule: Q01DX009 (ip), vehicle: saline, higher = longer survival",108 % of control
same,T/C,[6],97 % of control and 98 % of control
same,T/C,"endpoint: median survival time, dose: 10.0 mg/kg/injection, schedule: Q01DX009 (ip), vehicle: saline with Tween-80, higher = longer survival",86 % of control
same,T/C,"endpoint: median survival time, dose: 10.0 mg/kg/injection, schedule: Q01DX009 (ip), vehicle: saline, higher = longer survival",118 % of control
same,T/C,"endpoint: median survival time, dose: 16.2 mg/kg/injection, schedule: Q04DX002 (ip), vehicle: saline, higher = longer survival",97 % of control and 102 % of control
same,T/C,"endpoint: median survival time, dose: 20.0 mg/kg/injection, schedule: Q01DX009 (ip), vehicle: Klucel (hydroxypropylcellulose) (HPC), higher = longer survival",111 % of control
same,T/C,"endpoint: median survival time, dose: 20.0 mg/kg/injection, schedule: Q01DX009 (ip), vehicle: saline with Tween-80, higher = longer survival",97 % of control and 112 % of control
same,T/C,"endpoint: median survival time, dose: 21.6 mg/kg/injection, schedule: Q04DX004 (ip), vehicle: saline, higher = longer survival",124 % of control
same,T/C,"endpoint: median survival time, dose: 23.3 mg/kg/injection, schedule: Q04DX003 (iv), vehicle: alkali diluted with saline, higher = longer survival",157 % of control
same,T/C,"endpoint: median survival time, dose: 27.0 mg/kg/injection, schedule: Q04DX002 (ip), vehicle: saline, higher = longer survival",100 % of control and 102 % of control
same,T/C,"endpoint: median survival time, dose: 36.0 mg/kg/injection, schedule: Q04DX004 (ip), vehicle: saline, higher = longer survival",115 % of control
same,T/C,"endpoint: median survival time, dose: 40.0 mg/kg/injection, schedule: Q01DX009 (ip), vehicle: Klucel (hydroxypropylcellulose) (HPC), higher = longer survival",86 % of control
same,T/C,"endpoint: median survival time, dose: 40.4 mg/kg/injection, schedule: Q04DX003 (iv), vehicle: alkali diluted with saline, higher = longer survival",201 % of control
same,T/C,"endpoint: median survival time, dose: 45.0 mg/kg/injection, schedule: Q04DX002 (ip), vehicle: saline, higher = longer survival",96 % of control and 97 % of control
same,T/C,"endpoint: median survival time, dose: 70.0 mg/kg/injection, schedule: Q04DX003 (iv), vehicle: alkali diluted with saline, higher = longer survival",98 % of control
same,T/C,"endpoint: median survival time, dose: 75.0 mg/kg/injection, schedule: Q04DX002 (ip), vehicle: saline, higher = longer survival",105 % of control
same,T/C,"endpoint: median survival time, dose: 100.0 mg/kg/injection, schedule: Q04DX004 (ip), vehicle: saline, higher = longer survival",64 % of control
same,T/C,"endpoint: median survival time, dose: 121.0 mg/kg/injection, schedule: Q04DX003 (iv), vehicle: alkali diluted with saline, higher = longer survival",95 % of control
same,T/C,"endpoint: median survival time, dose: 125.0 mg/kg/injection, schedule: Q04DX002 (ip), vehicle: saline, higher = longer survival",109 % of control
same,T/C,"endpoint: median tumor weight (est.), dose: 5.0 mg/kg/injection, schedule: Q01DX009 (ip), vehicle: Klucel (hydroxypropylcellulose) (HPC), higher = larger tumour",102 % of control
same,T/C,"endpoint: median tumor weight (est.), dose: 5.0 mg/kg/injection, schedule: Q01DX009 (ip), vehicle: saline with Tween-80, higher = larger tumour",97 % of control
same,T/C,"endpoint: median tumor weight (est.), dose: 10.0 mg/kg/injection, schedule: Q01DX009 (ip), vehicle: Klucel (hydroxypropylcellulose) (HPC), higher = larger tumour",91 % of control
same,T/C,"endpoint: median tumor weight (est.), dose: 10.0 mg/kg/injection, schedule: Q01DX009 (ip), vehicle: saline with Tween-80, higher = larger tumour",93 % of control
same,T/C,"endpoint: median tumor weight (est.), dose: 20.0 mg/kg/injection, schedule: Q01DX009 (ip), vehicle: Klucel (hydroxypropylcellulose) (HPC), higher = larger tumour",73 % of control
same,T/C,"endpoint: median tumor weight (est.), dose: 20.0 mg/kg/injection, schedule: Q01DX009 (ip), vehicle: saline with Tween-80, higher = larger tumour",53 % of control
Nc1ncn(C2OC(CO)C(O)C2O)c(=O)n1 (stereo not drawn),T/C,"endpoint: median survival time, dose: 0.75 mg/kg/injection, schedule: Q01DX009 (ip), vehicle: saline, higher = longer survival",105 % of control and 112 % of control and 121 % of control
same,T/C,[1],121 % of control and 124 % of control
same,T/C,[2],105 % of control and 110 % of control
same,T/C,"endpoint: median tumor weight (est.), dose: 0.75 mg/kg/injection, schedule: Q01DX009 (ip), vehicle: saline, higher = larger tumour",75 % of control
same,T/C,"endpoint: median tumor weight (est.), dose: 1.5 mg/kg/injection, schedule: Q01DX009 (ip), vehicle: saline, higher = larger tumour",73 % of control
same,T/C,"endpoint: median tumor weight (est.), dose: 3.0 mg/kg/injection, schedule: Q01DX009 (ip), vehicle: saline, higher = larger tumour",59 % of control
NCCc1ccc(O)c(O)c1,T/C,"endpoint: median survival time, dose: 37.0 mg/kg/injection, schedule: Q01DX009 (ip), vehicle: saline, higher = longer survival",119 % of control
same,T/C,"endpoint: median survival time, dose: 75.0 mg/kg/injection, schedule: Q01DX009 (ip), vehicle: saline, higher = longer survival",109 % of control
same,T/C,"endpoint: median survival time, dose: 150.0 mg/kg/injection, schedule: Q01DX009 (ip), vehicle: saline, higher = longer survival",88 % of control
same,T/C,"endpoint: median survival time, dose: 600.0 mg/kg/injection, schedule: Q01DX009 (ip), vehicle: saline, higher = longer survival",107 % of control
